The values that follow come from US20240122880A1, “COMPOSITIONS FOR TREATING HYPERCHOLESTEROLEMIA AND PREPARATION METHODS THEREOF” (UNIVERSITY OF SAN AGUSTIN, priority 2020, published 2024).

Structures are written as SMILES.

In assay [1] the test system is lipase. Description: Lipase inhibition assay (glycerol generated from cleavage of triglycerides, Sigma MAK046 kit). As to conditions: relative to untreated lipase enzyme. It counts as biochemical.
Description: The lipase inhibition activities of the pineapple flesh, core, and stem crude extracts were determined by measuring the glycerol generated from the cleavage of triglycerides. The storage and preparation instruction were done according to the stated protocol of MAK, 046, Sigma Aldrich®, St. Louis, MO, USA.
Twenty μL of 750 mg/mL flesh, core, and stem at 100 mg/mL final concentration crude extracts were added to their respective wells.
Two μL of the lipase and Orlistat™ at 100 mg/mL and 10 mg/mL, respectively, were added to wells to serve as negative and positive control. All standards and samples were adjusted to 50 μL by adding Lipase Assay Buffer. A 100-μL reaction mix consisting of 93 μL Lipase Assay Buffer, 2 μL peroxidase substrate, 2 μL enzyme mix and 3 μL of lipase substrate was added to each well.
Absorbance was read at 570 nm every five minutes using CLARIOStar™ microplate reader at 37° C. incubation at slow kinetics mode for two hours. The percent lipase inhibition was calculated relative to the untreated lipase enzyme.
Assay [2] addresses T1, HMG-CoA reductase (Homo sapiens, UniProt P04035).
T1 construct: by the catalytic subunit of 3-hydroxy-3-methylglutaryl CoA reductase; purchased Sigma Aldrich CS1090
T1 sequence (P04035 340-888 limits assumed): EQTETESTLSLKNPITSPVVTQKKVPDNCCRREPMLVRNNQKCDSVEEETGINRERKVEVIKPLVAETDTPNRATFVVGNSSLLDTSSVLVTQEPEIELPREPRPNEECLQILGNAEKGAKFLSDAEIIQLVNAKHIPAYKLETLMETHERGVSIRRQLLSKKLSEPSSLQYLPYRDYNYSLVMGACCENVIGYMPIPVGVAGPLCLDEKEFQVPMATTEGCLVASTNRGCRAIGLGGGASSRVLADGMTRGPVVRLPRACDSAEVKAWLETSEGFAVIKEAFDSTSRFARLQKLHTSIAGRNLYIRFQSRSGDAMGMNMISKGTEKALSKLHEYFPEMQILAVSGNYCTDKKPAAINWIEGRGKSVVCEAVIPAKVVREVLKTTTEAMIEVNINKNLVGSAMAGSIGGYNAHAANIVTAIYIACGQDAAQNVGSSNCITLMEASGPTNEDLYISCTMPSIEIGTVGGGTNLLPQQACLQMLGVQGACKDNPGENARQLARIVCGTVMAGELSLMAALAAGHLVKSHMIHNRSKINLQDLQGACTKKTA
Description: HMG-CoA reductase inhibition assay (NADPH oxidation at 340 nm, Sigma CS1090 kit). It counts as biochemical. The conditions noted are these: sample concentration 2.1 μg/mL. The procedure: The assay was based on the spectrophotometric measurement of the decrease in absorbance at 340 nm, which represents the oxidation of Nicotinamide Adenine Dinucleotide Phosphate (NADPH) by the catalytic subunit of 3-hydroxy-3-methylglutaryl CoA reductase in the presence of substrate HMG-CoA. All storage and reagent preparations were performed according to the protocol (CS1090, Sigma Aldrich®, St. Louis, MO, USA).
Assay buffer (1×) in the HMG-CoA assay kit was added to all samples. 184 μL for the blank, 182 μL for the activity control, 181 μL for the inhibition control and samples according to the manufacturer's instructions in the Sigma-Aldrich® CS1090 assay kit.
Pravastatin™ (2.1 μg/mL) positive control, 20 μL of […], core (100 mg/mL final concentration) and 20 μL of 50 mg/mL stem (5 mg/mL final concentration) crude extracts were added to its assay buffers. Lower reaction concentration of extracts (20 μL of 250 mg/mL to obtain 25 mg/mL final concentration of flesh and core crude extracts) was also tested against HMG-CoA reductase enzyme.
Four μL of NADPH and 12 μL HMG-CoA substrate were also added to the treatments. The HMG-CoA reductase enzyme (2 μL) was kept on ice until added to the activity, inhibition controls, and samples.
The absorbance at 340 nm was monitored for every 20 seconds for up to 10 minutes using CLARIOStar™ plate reader. […]

As to `CCCCCCCCCCC[C@@H](C[C@@H]1OC(=O)[C@H]1CCCCCC)OC(=O)[C@H](CC(C)C)NC=O` [Orlistat ™, Orlistat], the Lipase inhibition activity is reported as 100±0.05% in assay [1] (sample concentration 10 mg/mL) and 100 ± 0.05% in assay [1] (sample concentration 100 mg/mL).
As for `CC[C@H](C)C(=O)O[C@H]1C[C@H](O)C=C2C=C[C@H](C)[C@H](CC[C@@H](O)C[C@@H](O)CC(=O)O)[C@H]21` [Pravstatin ™, Pravastatin], the “HMG-COA reductase inhibition activity” value in assay [2] is reported as 82%.
